Measured values from US5300672A (priority 1992, dated 1994).
Read-outs that look alike come from different tables or passages of the source.

Experiments:
Pseudomonas fluorescens = experiment: Alternate Minimum Inhibitory Concentrations Test (Table 4), Ps.fl; format: cell-based; conditions: Table 4 alternate test; for MIC: Pseudomonas fluorescens, 250 ppm to 0.8 ppm in TSB, 72 hours, 30° C., read-out: MIC Ps.fl; for MIC Ps.fl (I = inactive): class symbol
Method: The compounds of Examples 1-8, 12-26, 28-33, 36-37, 39-42, 44-109, 111-114, and 116-120 were subjected also to the following alternate biocidal activity test procedures with the results as indicated in Table 4.
The MIC test measures the viability of Pseudomonas fluorescens inoculum in TSB when exposed for 72 hours to varying concentrations of test compound.
A 125 μl aliquot of 10,000 ppm test compound in acetone was added to 4.88 ml of TSB to provide a 250 ppm solution. From this solution, 100 μL was transferred to the first row of two microtiter plate columns. Both replicates and five additional compounds were all serially diluted 1:1 to a final concentration of 0.8 ppm in TSB.
Inoculation was accomplished by diluting a 24 hr Ps fl culture, four mls per 36 mls of phosphate buffer solution. A Dynatech autoinoculator was used to transfer 1.5 μl of this cell suspension to the microtiter plates. The plates were incubated at 30° C. for 3 days before the lowest concentration at which no growth occurs was recorded in the database.

Piricularia oryzae = experiment: whole plant or invertebrate; format: in vivo; conditions: Pyricularia oryzae
[1] = tested on: Puccinia graminis (f. sp. tritici Race 15B-2); experiment: whole plant or invertebrate; format: in vivo; conditions: Puccinia graminis, 336 h, read-out: % Control WSR
Phytophthora infestans = experiment: whole plant or invertebrate; format: in vivo; conditions: Phytophthora infestans, in Solanum lycopersicum, 96 h
[2] = tested on: Pseudoperonospora cubensis; experiment: whole plant or invertebrate; format: in vivo; conditions: Pseudoperonospora cubensis, in Cucumis sativus, 168 h; read-out: % Control CDM
[3] = tested on: Erysiphe graminis (f. sp. tritici); experiment: whole plant or invertebrate; format: in vivo; conditions: Blumeria graminis; read-out: % Control WPM
[4] = tested on: Puccinia recondita (f. sp. tritici Races PKB and PLD); experiment: whole plant or invertebrate; format: in vivo; conditions: Puccinia recondita, 240 h; read-out: % Control WLR
[5] = tested on: Pellicularia filamentosa (f. sp. sasiki); experiment: whole plant or invertebrate; format: in vivo; conditions: 120 h; read-out: % Control RSB
[6] = read-out: % Control RB, application rate 200 ppm
[7] = read-out: % Control TLB, application rate 200 ppm

CCCCCCCCNC(=O)/C=C\SC(=O)c1sccc1C [Compound 50, N-octyl-cis-3-[(3-methyl-2-thiophene)carbonylthio]acrylamide]
MIC (Pseudomonas fluorescens): > 250 µg/mL | pest or weed control at 200 ppm (Piricularia oryzae; [6]): 0% | pest or weed control at 200 ppm [1]: 75% | pest or weed control at 100 ppm (Phytophthora infestans; read-out: % Control TLB): 80% | pest or weed control at 50 ppm [2]: 85%

CCCCCCCCNC(=O)/C=C\SC(=O)CCCCCCCC(=O)OC [Compound 117, N-octyl-cis-3-[(8-methoxycarbonyloctanoyl)thio]acrylamide]
MIC Ps.fl (I = inactive) (Pseudomonas fluorescens): I | pest or weed control at 200 ppm [3]: 0% | pest or weed control at 200 ppm (Piricularia oryzae; [6]): 0% | pest or weed control at 200 ppm [4]: 0% | pest or weed control at 200 ppm (Phytophthora infestans; [7]): 0% | pest or weed control at 50 ppm [2]: 95%

CCCCCCCCNC(=O)/C=C\SC(=O)c1ccnc2ccccc12 [Compound 95, N-octyl-cis-3-[(4-quinoline)carbonylthio]acrylamide]
MIC (Pseudomonas fluorescens): > 250 µg/mL | pest or weed control at 200 ppm [3]: 0% | pest or weed control at 200 ppm [5]: 0% | pest or weed control at 50 ppm (Piricularia oryzae; read-out: % Control RB): 70% | pest or weed control at 200 ppm [4]: 50% | pest or weed control at 200 ppm (Phytophthora infestans; read-out: % Control TLB): 80% | pest or weed control at 200 ppm [2]: 95%

CCCCCCCCNC(=O)/C=C\SC(=O)c1ccc(Cl)c(Cl)c1 [Compound 103, N-octyl-cis-3-[(3,4-dichlorobenzoyl)thio]acrylamide]
MIC (Pseudomonas fluorescens): > 250 µg/mL | pest or weed control at 200 ppm [3]: 85% | pest or weed control at 200 ppm (Piricularia oryzae; [6]): 50% | pest or weed control at 200 ppm [4]: 0% | pest or weed control at 200 ppm (Phytophthora infestans; [7]): 0% | pest or weed control at 200 ppm [2]: 50%

CCCCCCCCNC(=O)/C=C\SC(=O)C1CC1 [Compound 49, N-octyl-cis-3-(cyclopropanecarbonylthio)acrylamide]
MIC (Pseudomonas fluorescens): > 250 µg/mL | pest or weed control at 12 ppm (Piricularia oryzae; read-out: % Control RB, application rate 12 ppm): 50% | pest or weed control at 200 ppm [1]: 75% | pest or weed control at 100 ppm (Phytophthora infestans; read-out: % Control TLB): 80% | pest or weed control at 50 ppm [2]: 99%

CCCCCCCCNC(=O)/C=C\SC(=O)c1cc([N+](=O)[O-])cc([N+](=O)[O-])c1 [Compound 97, N-octyl-cis-3-[(3,5-dinitrobenzoyl)thio]acrylamide]
MIC (Pseudomonas fluorescens): > 250 µg/mL | pest or weed control at 12 ppm [3]: 50% | pest or weed control at 200 ppm [5]: 0% | pest or weed control at 200 ppm (Piricularia oryzae; read-out: % Control RB): 70% | pest or weed control at 200 ppm [4]: 0% | pest or weed control at 200 ppm (Phytophthora infestans; read-out: % Control TLB): 80% | pest or weed control at 50 ppm [2]: 0%

CCCCCCCCNC(=O)/C=C\SC(=O)c1ccc(OCCCCCCC)cc1 [Compound 45, N-octyl-cis-3-[(4-heptoxybenzoyl)thio]acrylamide]
MIC (Pseudomonas fluorescens): > 250 µg/mL | pest or weed control at 200 ppm [3]: 0% | pest or weed control at 200 ppm [5]: 80% | pest or weed control at 200 ppm (Piricularia oryzae; [6]): 0% | pest or weed control at 200 ppm [4]: 0% | pest or weed control at 200 ppm (Phytophthora infestans; [7]): 0% | pest or weed control at 200 ppm [2]: 0%

CCCCCCCCNC(=O)/C=C\SC(=O)CCCOc1ccccc1 [Compound 120, N-octyl-cis-3-[(4-phenoxybutanoyl)thio]acrylamide]
MIC Ps.fl (I = inactive) (Pseudomonas fluorescens): I | pest or weed control at 200 ppm [3]: 0% | pest or weed control at 200 ppm (Piricularia oryzae; [6]): 0% | pest or weed control at 200 ppm [4]: 0% | pest or weed control at 50 ppm (Phytophthora infestans; read-out: % Control TLB): 80% | pest or weed control at 200 ppm [2]: 90%

CCCCCCCCNC(=O)/C=C\SC(=O)c1c[nH]c2ccccc12 [Compound 77, N-octyl-cis-3-[(3-indole)carbonylthio]acrylamide]
MIC (Pseudomonas fluorescens): > 250 µg/mL | pest or weed control at 200 ppm [3]: 0% | pest or weed control at 200 ppm [5]: 0% | pest or weed control at 200 ppm (Piricularia oryzae; [6]): 90% | pest or weed control at 200 ppm [4]: 80% | pest or weed control at 200 ppm (Phytophthora infestans; read-out: % Control TLB): 90% | pest or weed control at 200 ppm [2]: 85%

CCCCCCCCNC(=O)/C=C\SC(=O)C1C=CCC=C1C (stereo not drawn) [Compound 101, N-octyl-cis-3-[(2-methylcyclohexa-2,5-diene)carbonylthio]acrylamide]
MIC (Pseudomonas fluorescens): > 250 µg/mL | pest or weed control at 200 ppm [3]: 0% | pest or weed control at 200 ppm (Piricularia oryzae; [6]): 75% | pest or weed control at 200 ppm [4]: 0% | pest or weed control at 200 ppm (Phytophthora infestans; [7]): 0% | pest or weed control at 200 ppm [2]: 50%

CC/C=C/C(=O)S/C=C\C(=O)NCCCCCCCC [Compound 84, N-octyl-cis-3-[(trans-2-pentenoyl)thio]acrylamide]
MIC (Pseudomonas fluorescens): > 250 µg/mL | pest or weed control at 200 ppm [3]: 0% | pest or weed control at 200 ppm [5]: 0% | pest or weed control at 200 ppm (Piricularia oryzae; [6]): 0% | pest or weed control at 200 ppm [4]: 50% | pest or weed control at 200 ppm (Phytophthora infestans; read-out: % Control TLB): 90% | pest or weed control at 200 ppm [2]: 0%
